We go through 15 molecules from patent US7579469B2, “Glucocorticoid mimetics, methods of making them, pharmaceutical compositions, and uses thereof” (Boehringer Ingelheim Pharmaceuticals, Inc., priority 2003, dated 2009).

Data set [1] concerns Osteocalcin Production from Osteoblast Cell Line MG-63. Put plainly: Inhibition of osteocalcin production from osteoblast cell line MG-63. Particulars: MG-63 cells, Vitamin D 10 nM, 48 hours, osteocalcin ELISA. The format is cell-based, human. As for the experimental part:
Representative compounds of the invention have been tested and have shown activity as modulators of the glucocorticoid receptor function in one or more of the above assays. […] 7. Inhibition of Osteocalcin Production from Osteoblast Cell Line MG-63
Human osteosarcoma MG-63 cells (ATCC, Cat. No. CRL-1427) are plated on 96 well plates at 20,000 cells per well the day before use in 200 μL media of 99% D-MEM/F-12 (Gibco-Invitrogen, Cat. No. 11039-021), supplemented with 1% penicillin and streptomycin (Gibco-Invitrogen, Cat. No. 15140-122), 10 μg/mL Vitamin C (Sigma, Cat. No. A4544), and 1% charcoal filtered Fetal Bovine Serum (HyClone, Cat. No. SH30068.02). The next day, wells are replaced with fresh media. Cells are treated with Vitamin D (Sigma, Cat. No. D1530) to a final concentration of 10 nM, and with the test compounds in concentrations of 10^−6 M to 10^−9 M, in a total volume of 200 μL per well. Samples are done in duplicates. […] Positive control wells receive Vitamin D only, without compounds, and represent maximum (100%) amount of osteocalcin production. Plates are incubated at 37° C. incubator for 48 hours and supernatants are harvested at the end of incubation. Amounts of osteocalcin in the supernatants are determined by the Glype osteocalcin ELISA kit (Zymed, Cat. No. 99-0054) according to manufacture's protocol. Inhibition of osteocalcin by test compounds is expressed in percentage relative to positive controls. IC50 values of the test compounds are derived by non-lineal curve fitting.
On the technique in general: In an ELISA, binding on a coated surface is turned into a signal by an enzyme label.

For data set [2], the target named is T1, human glucocorticoid receptor (GR) complex (Homo sapiens, UniProt P04150).
T1 construct: made in house; host or cells: insect expression system (baculovirus lysate)
T1 sequence (P04150 1-777): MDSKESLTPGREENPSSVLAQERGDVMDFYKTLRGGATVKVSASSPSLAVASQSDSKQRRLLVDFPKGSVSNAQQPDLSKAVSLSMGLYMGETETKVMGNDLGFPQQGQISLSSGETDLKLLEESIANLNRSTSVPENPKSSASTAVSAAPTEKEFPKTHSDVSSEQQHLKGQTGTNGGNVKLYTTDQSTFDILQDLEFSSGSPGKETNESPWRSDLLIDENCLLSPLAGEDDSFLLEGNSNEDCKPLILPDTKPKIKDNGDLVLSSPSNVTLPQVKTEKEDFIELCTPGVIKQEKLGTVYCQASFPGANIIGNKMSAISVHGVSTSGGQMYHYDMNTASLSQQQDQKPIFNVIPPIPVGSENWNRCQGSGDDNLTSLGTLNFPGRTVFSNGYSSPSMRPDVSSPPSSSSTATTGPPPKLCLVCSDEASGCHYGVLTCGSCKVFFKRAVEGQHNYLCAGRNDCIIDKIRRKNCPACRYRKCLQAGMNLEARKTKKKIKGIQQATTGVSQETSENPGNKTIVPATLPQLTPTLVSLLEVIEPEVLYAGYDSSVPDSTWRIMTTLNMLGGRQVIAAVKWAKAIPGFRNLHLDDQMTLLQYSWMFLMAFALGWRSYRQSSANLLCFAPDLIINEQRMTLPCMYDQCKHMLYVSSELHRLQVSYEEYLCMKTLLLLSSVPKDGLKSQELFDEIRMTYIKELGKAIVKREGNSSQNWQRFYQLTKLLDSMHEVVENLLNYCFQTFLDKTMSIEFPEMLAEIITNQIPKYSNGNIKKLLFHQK
Put plainly: Glucocorticoid receptor competitive binding assay (fluorescence polarization). Particulars: competition with TAMRA-labeled dexamethasone. Summed up: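 Fluorescence polarization competition against TAMRA-labelled dexamethasone (50 μL of 15 nM added) for human GR complex from baculovirus insect-cell lysate, diluted 1:170, in TES/KCl/molybdate buffer, pH 7.4.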
(Fluorescence polarisation rises when a labelled molecule tumbles more slowly, as on binding a larger partner.)

In the case of `CC(C)(CC(O)(Cn1ccc(=O)c2ncccc21)C(F)(F)F)c1cc(F)ccc1O` (stereo not shown), the “inhibit the vitamin D stimulated production of osteocalcin” value in data set [1] is on record as “inhibit”. Same read-out and setting: to `CC(C)(CC(O)(Cn1ccc(=O)c2ccccc21)C(F)(F)F)c1cccc(-c2ccccc2)c1` (stereo not shown) [1-(4-Biphenyl-3-yl-2-hydroxy-4-methyl-2-trifluoromethylpentyl)-1H-quinolin-4-one] belongs “inhibit”. As for `CC(C)(CC(O)(Cn1ccc(=O)c2ccccc21)C(F)(F)F)c1cc(S(C)(=O)=O)cc2c1OCC2` (stereo not shown) [1-[2-Hydroxy-4-(5-methanesulfonyl-2,3-dihydrobenzofuran-7-yl)-4-methyl-2-trifluoromethylpentyl]-1H-quinolin-4-one], the “activity in the GR binding assay” value in data set [2] is on record as “potent activity”. The “inhibit the vitamin D stimulated production of osteocalcin” value in data set [1] was “inhibit”.

On to `CC(C)(CC(O)(Cn1ccc(=O)c2ccccc21)C(F)(F)F)c1cc(Br)cc2c1OCC2` (stereo not shown) [1-[4-(5-Bromo-2,3-dihydrobenzofuran-7-yl)-2-hydroxy-4-methyl-2-trifluoromethylpentyl]-1H-quinolin-4-one], for which the “activity in the GR binding assay” value in data set [2] was “potent activity”. For the same molecule, the “inhibit the vitamin D stimulated production of osteocalcin” value in data set [1] was “inhibit”. Take `CC(C)(CC(O)(Cn1ccc(=O)c2ccccc21)C(F)(F)F)c1cc(F)ccc1O` (stereo not shown) [1-[4-(5-Fluoro-2-hydroxyphenyl)-2-hydroxy-4-methyl-2-trifluoromethylpentyl]-1H-quinolin-4-one]: in data set [2], the “activity in the GR binding assay” value is reported as “potent activity”. The “inhibit the vitamin D stimulated production of osteocalcin” value in data set [1] was “inhibit”.

In the case of `CC(C)(CC(O)(Cn1ccc(=O)c2ccc(F)cc21)C(F)(F)F)c1cc(F)ccc1O` (stereo not shown) [7-Fluoro-1-[4-(5-fluoro-2-hydroxyphenyl)-2-hydroxy-4-methyl-2-trifluoromethylpentyl]-1H-quinolin-4-one], in data set [2], the “activity in the GR binding assay” value was “potent activity”. The “inhibit the vitamin D stimulated production of osteocalcin” value in data set [1] is “inhibit”.

For `COc1ccc(F)cc1C(C)(C)CC(O)(Cn1ccc(=O)c2ccc(F)cc21)C(F)(F)F` (stereo not shown) [7-Fluoro-1-[4-(5-fluoro-2-methoxyphenyl)-2-hydroxy-4-methyl-2-trifluoromethylpentyl]-1H-quinolin-4-one], in data set [2], the “activity in the GR binding assay” value is recorded as “potent activity”. Same read-out and setting: to `CC(C)(CC(O)(Cn1ccc(=O)c2cccc(F)c21)C(F)(F)F)c1cc(F)ccc1O` (stereo not shown) [8-Fluoro-1-[4-(5-fluoro-2-hydroxyphenyl)-2-hydroxy-4-methyl-2-trifluoromethylpentyl]-1H-quinolin-4-one] belongs “potent activity”; to `COc1ccc(F)cc1C(C)(C)CC(O)(Cn1ccc(=O)c2cccc(F)c21)C(F)(F)F` (stereo not shown) [8-Fluoro-1-[4-(5-fluoro-2-methoxyphenyl)-2-hydroxy-4-methyl-2-trifluoromethylpentyl]-1H-quinolin-4-one], “potent activity”.

As a reminder, the melting point is the temperature of the solid-liquid transition. `COc1ccc(F)cc1C(C)(C)CC(O)(Cn1[nH]c(=O)c2ccccc21)C(F)(F)F` (stereo not shown) [Example 23, 1-[4-(5-fluoro-2-methoxyphenyl)-2-hydroxy-4-methyl-2-trifluoromethylpentyl]-1,2-dihydroindazol-3-one]: the melting point lay within 141 to 144 °C. Molecule `COc1ccc(F)cc1C(C)(C)CC(O)(Cn1cc(C)c(=O)c2ccccc21)C(F)(F)F` (stereo not shown) [Example 26, 1-[4-(5-fluoro-2-methoxyphenyl)-2-hydroxy-4-methyl-2-trifluoromethylpentyl]-3-methyl-1H-quinolin-4-one] showed a melting point above 225 °C. The same measure, in the same setting: to `CCOc1ccc(F)cc1C(C)(C)CC(O)(Cn1ccc(=O)c2ccccc21)C(F)(F)F` (stereo not shown) [Example 27, 1-[4-(2-ethoxy-5-fluorophenyl)-2-hydroxy-4-methyl-2-trifluoromethylpentyl]-1H-quinolin-4-one] belongs 195 to 196 °C; to `CC(C)(CC(O)(Cn1ccc(=O)c2ccccc21)C(F)(F)F)c1cc(F)ccc1OC(F)F` (stereo not shown) [Example 28, 1-[4-(2-difluoromethoxy-5-fluorophenyl)-2-hydroxy-4-methyl-2-trifluoromethylpentyl]-1H-quinolin-4-one], 150 to 155 °C. `CC(C)(CC(O)(CN1CCN(C(=O)c2ccco2)CC1)C(F)(F)F)c1cc(F)ccc1O` (stereo not shown) [{4-[4-(5-Fluoro-2-hydroxyphenyl)-2-hydroxy-4-methyl-2-trifluoromethylpentyl]piperazin-1-yl}furan-2-ylmethanone]: the “activity in the GR binding assay” value in data set [2] is “potent activity”.

Regarding `COc1ccc(F)cc1C(C)(C)CC(O)(CN1CCN(C(=O)c2ccco2)CC1)C(F)(F)F` (stereo not shown) [{4-[4-(5-Fluoro-2-methoxyphenyl)-2-hydroxy-4-methyl-2-trifluoromethylpentyl]piperazin-1-yl}furan-2-ylmethanone], in data set [2], the “activity in the GR binding assay” value is on record as “potent activity”.
